In US20100222360A1, “Treatment of Malignant Peripheral Nerve Sheath Tumors” (priority 2008, published 2010):

Tested on: MPNST cell line, YST-1
Test: Proliferation of the MPNST cell line YST-1
Type: cell-based

In the case of O=C1c2ccccc2-c2n[nH]c3cccc1c23 [SP600125], the “effect on the suppression of cell proliferation effected by Imatinib” value (SP600125 in combination with Imatinib, YST-1 cells) was “reinforces the suppression of cell proliferation” and the “suppression of proliferation of the MPNST cell line YST-1” value (single agent, concentration-dependent manner) was “suppresses the proliferation”.
